In the test the test system is human subcutaneous adipocytes. Put plainly: O2 consumption rate (OCR), Seahorse XF24 with XF Palmitate-BSA Fatty Acid Oxidation kit, human subcutaneous adipocytes. The class given is cell-based. The method, then:
To characterize the effects of miR-22-3p inhibition on energy utilization in human subcutaneous adipocytes in culture, O2 consumption rate (OCR) was measured with the XF24 Analyzer (Seahorse Bioscience) using the XF Palmitate-BSA Fatty Acid Oxidation substrate kit during the successive addition of Oligomycin, FCCP, and Antimycin/Rotenone, following the manufacturer instructions.
Human subcutaneous pre-adipocytes (ZenBio, NC) were seeded into 96-well plates and differentiated for 7 days, then placed in maintenance medium according to the manufacturer's instructions. On Day 14, the adipocytes were transfected with 50 nM of the miR-22-3p inhibitor APT-110. Medium was exchanged every 2 to 3 days and Seahorse assay was performed on Day 21. Negative control was bovine serum albumin (BSA) and positive control was 100 nM rosiglitazone throughout the culture.

As to “5′-5mCpsTpsTps2′OMeCpsTpsTps5mCpsApsAps2′OMeCpsTpsGpsGps5mCpsApsGps5mCpsT-3′ [APT-110]”, the “non-mitochondrial respirations and proton leak on addition of palmitate” value (APT-110 50 nM + palmitate) was “dramatic increase”. This substance also displayed a maximum respiration increase (APT-110 50 nM, assay Day 21) of 33%. The “basal OCR vs control adipocytes” value (basal conditions, rosiglitazone 100 nM or APT-110 50 nM, control BSA) is given as 2 fold.

The values above are taken from patent US12286625B2, “Inhibition of mir-22 miRNA by APT-110” (AptamiR Therapeutics, Inc., priority 2016, dated 2025).
